Data from patent US11198695B2, “Fused ring derivative having MGAT-2 inhibitory activity” (Shionogi & Co., Ltd., priority 2017, dated 2021).

biological target: recombinant human MGAT2 (Homo sapiens (Human), UniProt Q3SYC2); experiment: Measurement of human MGAT2 inhibitory activity; type: biochemical; details: read-out: IC50 (concentration exhibiting 50% enzyme inhibition), Table 52
How it was run: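 Membrane fraction of Sf9 cells expressing N-terminally Flag-tagged full-length human MGAT2, incubated 1 h at room temperature in 100 mmol/L phosphate pH 7.4 with 2 mmol/L DTT. The substrate solution held 30 μmol/L 2-oleoylglycerol and 10 μmol/L oleoyl-CoA. Diolein product was quantified by RapidFire ESI Q-TOF MS against diolein-d5 internal standard; % inhibition was set relative to with/without-enzyme controls.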

Sequence of recombinant human MGAT2 (Q3SYC2 whole entry): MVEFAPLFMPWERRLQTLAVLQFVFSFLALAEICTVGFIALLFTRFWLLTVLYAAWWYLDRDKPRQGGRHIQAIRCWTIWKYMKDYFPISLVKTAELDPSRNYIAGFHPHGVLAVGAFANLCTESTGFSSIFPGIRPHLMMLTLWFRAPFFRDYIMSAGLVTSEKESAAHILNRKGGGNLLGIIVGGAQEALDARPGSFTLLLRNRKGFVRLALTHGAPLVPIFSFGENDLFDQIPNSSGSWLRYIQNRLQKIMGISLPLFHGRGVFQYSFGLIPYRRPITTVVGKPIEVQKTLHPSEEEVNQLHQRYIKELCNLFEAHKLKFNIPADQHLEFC

SMILES	IC50 [nM]
CS(=O)(=O)CC(=O)Nc1nn(CCCC(F)(F)F)c2c1C(=O)N[C@@]1(CCc3cc(OCCCC(F)(F)F)ccc31)C2 [Compound I-208]	250
CS(=O)(=O)CC(=O)Nc1nn(CC2CCC(C(F)(F)F)CC2)c2c1C(=O)N[C@@]1(CCc3cc(OCCCC(F)(F)F)ccc31)C2 (stereo partly drawn) [Compound I-73]	290
O=C1N[C@@]2(CCc3cc(OCC(F)(F)F)ccc32)Cc2nn(CCC3CC3)c(CNS(=O)(=O)C3CCCC3)c21 [Compound I-140]	730
CS(=O)(=O)CC(=O)Nc1c2c(nn1CCC1CCOCC1)C[C@]1(CCc3cc(OCC(F)(F)F)ccc31)NC2=O [Compound I-258]	120
O=C1N[C@@]2(CCc3cc(OCC(F)(F)F)ccc32)Cc2nn(CCC3CC3)c(CNC(=O)C3CS(=O)(=O)C3)c21 [Compound I-161]	430
CS(=O)(=O)CC(=O)Nc1nn(CCCc2ccccc2)c2c1C(=O)N[C@@]1(CCc3cc(OCCCC(F)(F)F)ccc31)C2 [Compound I-62]	250
CS(=O)(=O)CC(=O)Nc1c2c(nn1CCC1CC1)C[C@]1(CCOc3cc(OCC(F)(F)F)ccc31)NC2=O [Compound I-49]	1.9
O=C1N[C@@]2(CCc3cc(OCC(F)(F)F)ccc32)Cc2nn(CCC3CC3)c(NC(=O)C3CC(F)(F)C3)c21 [Compound I-184]	68
CC(C)(O)CCn1nc2c(c1NC(=O)CS(C)(=O)=O)C(=O)N[C@@]1(CCc3cc(OCCCC(F)(F)F)ccc31)C2 [Compound I-69]	55
O=C1N[C@@]2(CCc3cc(OCC(F)(F)F)ccc32)Cc2nn(CCC3CC3)c(C(=O)NCC3(CO)COC3)c21 [Compound I-89]	55
O=C(CN1CCCC1=O)Nc1c2c(nn1CCC1CC1)C[C@]1(CCc3cc(OCCCC(F)(F)F)ccc31)NC2=O [Compound I-27]	600
Cc1cccc(-n2nc3c(c2NC(=O)CS(C)(=O)=O)C(=O)N[C@@]2(CCc4cc(OCC(F)(F)F)ccc42)C3)c1 [Compound I-98]	8.5
O=C1N[C@@]2(CCc3cc(OCC(F)(F)F)ccc32)Cc2nn(CCC3CC3)c(C(=O)NCCO)c21 [Compound I-85]	570
O=C(Nc1c2c(nn1CCC1CC1)C[C@]1(CCc3cc(OCC(F)(F)F)ccc31)NC2=O)c1cscn1 [Compound I-222]	88
CN(C)CCn1nc2c(c1NC(=O)CS(C)(=O)=O)C(=O)N[C@@]1(CCc3cc(OCCCC(F)(F)F)ccc31)C2 [Compound I-46]	440
CS(=O)(=O)CC(=O)Nc1c2c(nn1CCC1CC1)C[C@@]1(CCc3cc(OCC(F)(F)F)ccc31)NC2=O [Compound I-71]	3.9
CS(=O)(=O)CC(=O)Nc1c2c(nn1-c1ccccn1)C[C@@]1(CCc3cc(OCC(F)(F)F)ccc31)NC2=O [Compound I-104]	12
O=C1N[C@@]2(CCc3cc(OCC(F)(F)F)ccc32)Cc2nn(CCC3CC3)c(CNS(=O)(=O)CCO)c21 [Compound I-144]	400

same assay, conditions: read-out: IC50 (concentration exhibiting 50% enzyme inhibition), Table 53

SMILES	IC50 [nM]
CC(F)(F)COc1ccc2c(c1)CC[C@]21Cc2nn(-c3ccc(C(F)F)cc3)c(NC(=O)CS(C)(=O)=O)c2C(=O)N1 [II-288]	3.31
N#Cc1ccc(-n2nc3c(c2C(=O)NCC2(O)CCOC2)C(=O)N[C@@]2(CCc4cc(OCC(F)(F)F)ccc42)C3)nc1 (stereo partly drawn) [II-119]	26.8
CS(=O)(=O)CC(=O)Nc1c2c(nn1CCC1CC1)C[C@@]1(CCc3cc(N4CC(n5cccn5)C4)ccc31)NC2=O [II-35]	48
Cc1cc(-n2nc3c(c2NC(=O)CS(C)(=O)=O)C(=O)N[C@@]2(CCc4cc(OCCCC(F)(F)F)ccc42)C3)no1 [II-282]	< 1
Cc1cc(-n2nc3c(c2NC(=O)CS(C)(=O)=O)C(=O)N[C@](C)(c2ccc(CCC(F)(F)F)cc2F)C3)no1 [II-300]	< 1
CC(=O)Nc1c2c(nn1-c1ccc(C#N)cn1)C[C@@]1(CCc3cc(OCC(F)(F)F)ccc31)NC2=O [II-51]	440
CS(=O)(=O)CC(=O)Nc1c2c(nn1CCOCC(F)F)C[C@@]1(CCc3cc(OCC(F)(F)F)ccc31)NC2=O [II-18]	47
CS(=O)(=O)CC(=O)Nc1c2c(nn1CCCOC(F)(F)F)C[C@@]1(CCc3cc(OCC(F)(F)C(F)(F)F)ccc31)NC2=O [II-261]	1
N#Cc1ccc(-n2nc3c(c2C(=O)NCCC(F)(F)F)C(=O)N[C@@]2(CCc4cc(OCC(F)(F)F)ccc42)C3)nc1 [II-126]	12.7
CS(=O)(=O)CC(=O)Nc1c2c(nn1CCOCC(F)F)C[C@]1(CCOc3cc(OCC(F)(F)F)ccc31)NC2=O [II-24]	32
Cc1ccc(-n2nc3c(c2C(=O)NCC2(O)CC2)C(=O)N[C@@]2(CCc4cc(OCC(F)(F)F)ccc42)C3)cc1F [II-221]	6.87
Cc1cc(-n2nc3c(c2NC(=O)CS(C)(=O)=O)C(=O)N[C@@]2(CCc4cc(C5CC5)ccc42)C3)nn1C [II-303]	4.42
CS(=O)(=O)CC(=O)Nc1c2c(nn1CCCOC(F)F)C[C@]1(CCc3cc(CCC(F)(F)F)ccc31)NC2=O [II-285]	1.04
Cc1ccc(-n2nc3c(c2NC(=O)CS(C)(=O)=O)C(=O)N[C@@]2(CCc4cc(OCC(C)(C)F)ccc42)C3)nc1 [II-161]	4.67
CS(=O)(=O)CC(=O)Nc1c2c(nn1CCC1CC1)C[C@@]1(CCc3cc(OCCOCC(F)F)ccc31)NC2=O [II-99]	9.59
Cc1ccc(-n2nc3c(c2C(=O)NCCC(F)(F)F)C(=O)N[C@@]2(CCc4cc(OCC(F)(F)F)ccc42)C3)nc1 [II-195]	29.8
CS(=O)(=O)CC(=O)Nc1c2c(nn1CCC1CC1)C[C@@]1(CCc3cc(CCC(F)(F)F)ccc31)NC2=O [II-66]	2.5
CS(=O)(=O)CC(=O)Nc1c2c(nn1CCCOC(F)(F)F)C[C@@]1(CCOc3cc(C4CC4)ccc31)NC2=O [II-279]	1.12
Cc1ccc(-n2nc3c(c2NC(=O)CS(C)(=O)=O)C(=O)N[C@@]2(CCc4cc(C5CC5)ccc42)C3)nc1 [II-156]	3.6
CS(=O)(=O)CC(=O)Nc1c2c(nn1-c1ccc(C#N)cn1)C[C@]1(CCc3cc(OCC(F)(F)F)ccc31)NC2=O [II-143]	0.706
Cc1ccc(-n2nc3c(c2C(=O)NCC#N)C(=O)N[C@@](c2ccc(OCC(F)(F)F)cc2F)(C(F)(F)F)C3)nc1 [II-239]	4.62
Cc1ccc(-n2nc3c(c2NC(=O)CS(C)(=O)=O)C(=O)N[C@@]2(CCc4ccccc42)C3)nc1 [II-165]	26.9
Cc1cc(-n2nc3c(c2NC(=O)CS(C)(=O)=O)C(=O)N[C@@]2(CCc4cc(OCCCC(F)(F)F)ccc42)C3)nn1C [II-268]	1.24
CS(=O)(=O)CC(=O)Nc1c2c(nn1CCCOC(F)F)C[C@]1(CCc3cc(OCC(F)(F)F)ccc31)NC2=O [II-173]	1.34
CS(=O)(=O)CC(=O)Nc1c2c(nn1-c1ccc(C(F)F)cn1)C[C@]1(CCc3cc(OCC(F)(F)F)ccc31)NC2=O [II-297]	< 1
Cc1ccc(-n2nc3c(c2C(=O)NCC2(O)CC2)C(=O)N[C@@]2(CCc4cc(OCC(F)(F)F)ccc42)C3)nc1 [II-200]	2.29
Cc1cc(-n2nc3c(c2NC(=O)CS(C)(=O)=O)C(=O)N[C@](C)(c2ccc(OCC(F)(F)F)cc2F)C3)no1 [II-167]	3.63
Cc1ccc(-n2nc3c(c2C(=O)NCC2(C(F)F)CC2)C(=O)N[C@@]2(CCOc4cc(OCC(F)(F)F)ccc42)C3)nc1 [II-232]	67.3
CS(=O)(=O)CC(=O)Nc1c2c(nn1-c1ccc(C#N)cn1)C[C@]1(CCc3cc(Br)ccc31)NC2=O [II-30]	8.7
CS(=O)(=O)CC(=O)Nc1c2c(nn1CCC1CC1)C[C@@]1(CCc3cc(N4CC(Oc5ccccc5)C4)ccc31)NC2=O [II-43]	3
